molecular target: T1, human PAH with the R408W mutation (Homo sapiens, UniProt P00439, R408W); experiment: Cell Based Phenylalanine Flux Assay; settings: A375 cells expressing human R408W PAH; 24 hrs compound incubation; 13C-Tyrosine by LC-MS; average where tested multiple times; read-out: AC50
T1 construct: expressed in transfected cells
T1 sequence (P00439 1-452 R408W): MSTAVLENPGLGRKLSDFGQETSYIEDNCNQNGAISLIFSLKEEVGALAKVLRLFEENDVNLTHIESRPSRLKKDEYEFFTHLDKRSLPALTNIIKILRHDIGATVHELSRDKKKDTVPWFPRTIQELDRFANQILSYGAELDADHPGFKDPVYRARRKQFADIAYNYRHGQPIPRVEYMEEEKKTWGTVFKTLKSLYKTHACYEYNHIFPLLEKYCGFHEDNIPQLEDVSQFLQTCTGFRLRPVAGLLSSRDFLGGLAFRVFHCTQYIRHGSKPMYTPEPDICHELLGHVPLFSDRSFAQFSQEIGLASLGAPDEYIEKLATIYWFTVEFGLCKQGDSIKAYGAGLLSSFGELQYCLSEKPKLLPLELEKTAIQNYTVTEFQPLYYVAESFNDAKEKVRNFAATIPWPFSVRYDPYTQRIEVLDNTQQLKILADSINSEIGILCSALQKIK

SMILES | AC50 [nM]
Cn1ncnc1C(=O)N1CCc2[nH]cnc2[C@@H]1c1nc2c(C(F)(F)F)cccc2s1 [Example 2102, (R)-(1-methyl-1H-1,2,4-triazol-5-yl)(4-(4-(trifluoromethyl)benzo[d]thiazol-2-yl)-6,7-dihydro-1H-imidazo[4,5-c]pyridin-5(4H)-yl)methanone] | 1000 to 5000
CC(C)(O)c1nc(C(F)F)c(C(=O)N2CCc3[nH]cnc3[C@H]2c2nc3c(C(F)(F)F)cccc3s2)o1 [Example 2103, (S)-(4-(difluoromethyl)-2-(2-hydroxypropan-2-yl)oxazol-5-yl)(4-(4-(trifluoromethyl)benzo[d]thiazol-2-yl)-6,7-dihydro-1H-imidazo[4,5-c]pyridin-5(4H)-yl)methanone] | < 500
CC(C)(O)c1nc(C(F)F)c(C(=O)N2CCc3[nH]cnc3[C@@H]2c2nc3c(C(F)(F)F)cccc3s2)o1 [Example 2104, (R)-(4-(difluoromethyl)-2-(2-hydroxypropan-2-yl)oxazol-5-yl)(4-(4-(trifluoromethyl)benzo[d]thiazol-2-yl)-6,7-dihydro-1H-imidazo[4,5-c]pyridin-5(4H)-yl)methanone] | 500 to 1000
C[C@@H](O)c1nc(C(F)F)c(C(=O)N2CCc3[nH]cnc3[C@H]2c2nc3c(C(F)(F)F)cccc3s2)o1 [Example 2109, (4-(difluoromethyl)-2-((R)-1-hydroxyethyl)oxazol-5-yl) ((S)-4-(4-(trifluoromethyl)benzo[d]thiazol-2-yl)-6,7-dihydro-1H-imidazo[4,5-c]pyridin-5(4H)-yl)methanone] | < 500
C[C@@H](O)c1nc(C(F)F)c(C(=O)N2CCc3[nH]cnc3[C@@H]2c2nc3c(C(F)(F)F)cccc3s2)o1 [Example 2110, (4-(difluoromethyl)-2-((R)-1-hydroxyethyl)oxazol-5-yl)((R)-4-(4-(trifluoromethyl)benzo[d]thiazol-2-yl)-6,7-dihydro-1H-imidazo[4,5-c]pyridin-5(4H)-yl)methanone] | 1000 to 5000
Cn1nccc1C(=O)N1CCc2[nH]cnc2[C@H]1c1nc2c(C(F)(F)F)cccc2s1 [Example 2111, (S)-(1-methyl-1H-pyrazol-5-yl)(4-(4-(trifluoromethyl)benzo[d]thiazol-2-yl)-6,7-dihydro-1H-imidazo[4,5-c]pyridin-5(4H)-yl)methanone] | 500 to 1000
Cn1nccc1C(=O)N1CCc2[nH]cnc2[C@@H]1c1nc2c(C(F)(F)F)cccc2s1 [Example 2112, (R)-(1-methyl-1H-pyrazol-5-yl)(4-(4-(trifluoromethyl)benzo[d]thiazol-2-yl)-6,7-dihydro-1H-imidazo[4,5-c]pyridin-5(4H)-yl)methanone] | 1000 to 5000
C[C@H](O)c1nc(C(F)F)c(C(=O)N2CCc3[nH]cnc3[C@H]2c2nc3c(C(F)(F)F)cccc3s2)o1 [Example 2113, (4-(difluoromethyl)-2-((S)-1-hydroxyethyl)oxazol-5-yl) ((S)-4-(4-(trifluoromethyl)benzo[d]thiazol-2-yl)-6,7-dihydro-1H-imidazo[4,5-c]pyridin-5(4H)-yl)methanone] | < 500
C[C@H](O)c1nc(C(F)F)c(C(=O)N2CCc3[nH]cnc3[C@@H]2c2nc3c(C(F)(F)F)cccc3s2)o1 [Example 2114, (4-(difluoromethyl)-2-((S)-1-hydroxyethyl)oxazol-5-yl)((R)-4-(4-(trifluoromethyl)benzo[d]thiazol-2-yl)-6,7-dihydro-1H-imidazo[4,5-c]pyridin-5(4H)-yl)methanone] | 500 to 1000
Cc1nc(C(C)(C)O)oc1C(=O)N1CCc2[nH]cnc2[C@H]1c1nc2c(C(F)(F)F)cccc2s1 [Example 2115, (S)-(2-(2-hydroxypropan-2-yl)-4-methyloxazol-5-yl)(4-(4-(trifluoromethyl)benzo[d]thiazol-2-yl)-6,7-dihydro-1H-imidazo[4,5-c]pyridin-5(4H)-yl)methanone] | 500 to 1000
O=C(c1cnc(-c2ccc(F)cc2)o1)N1CCc2[nH]cnc2[C@H]1c1nc2ccccc2s1 [Example 2117] | < 500
O=C(c1cnc(-c2ccc(F)cc2)o1)N1CCc2[nH]cnc2[C@@H]1c1nc2ccccc2s1 [Example 2118, (R)-(4-(benzo[d]thiazol-2-yl)-6,7-dihydro-1H-imidazo[4,5-c]pyridin-5(4H)-yl)(2-(4-fluorophenyl)oxazol-5-yl)methanone] | 1000 to 5000
O=C(c1oc(-c2ccccn2)nc1C1CC1)N1CCCc2[nH]cnc2[C@H]1c1nc2ccccc2s1 [Example 2119, (S)-(4-(benzo[d]thiazol-2-yl)-7,8-dihydroimidazo[4,5-c]azepin-5(1H,4H,6H)-yl)(4-cyclopropyl-2-(pyridin-2-yl)oxazol-5-yl)methanone] | 500 to 1000
O=C(c1oc(-c2ccccn2)nc1C1CC1)N1CCCc2[nH]cnc2[C@@H]1c1nc2ccccc2s1 [Example 2120, (R)-(4-(benzo[d]thiazol-2-yl)-7,8-dihydroimidazo[4,5-c]azepin-5(1H,4H,6H)-yl)(4-cyclopropyl-2-(pyridin-2-yl)oxazol-5-yl)methanone] | 1000 to 5000
O=C(c1oc(-c2ccccn2)nc1C(F)(F)F)N1CCCc2[nH]cnc2[C@H]1c1nc2ccccc2s1 [Example 2121, (S)-(4-(benzo[d]thiazol-2-yl)-7,8-dihydroimidazo[4,5-c]azepin-5(1H,4H,6H)-yl)(2-(pyridin-2-yl)-4-(trifluoromethyl)oxazol-5-yl)methanone] | 500 to 1000
O=C(c1oc(-c2ccccn2)nc1C(F)(F)F)N1CCCc2[nH]cnc2[C@@H]1c1nc2ccccc2s1 [Example 2122, (R)-(4-(benzo[d]thiazol-2-yl)-7,8-dihydroimidazo[4,5-c]azepin-5(1H,4H,6H)-yl)(2-(pyridin-2-yl)-4-(trifluoromethyl)oxazol-5-yl)methanone] | 1000 to 5000
O=C(c1oc(NC2CC2)nc1C(F)(F)F)N1CCCc2[nH]cnc2[C@H]1c1nc2ccccc2s1 [Example 2127, (S)-(4-(benzo[d]thiazol-2-yl)-7,8-dihydroimidazo[4,5-c]azepin-5(1H,4H,6H)-yl)(2-(cyclopropylamino)-4-(trifluoromethyl)oxazol-5-yl)methanone] | 1000 to 5000
O=C(c1oc(NC2CC2)nc1C(F)(F)F)N1CCCc2[nH]cnc2[C@@H]1c1nc2ccccc2s1 [Example 2128, (R)-(4-(benzo[d]thiazol-2-yl)-7,8-dihydroimidazo[4,5-c]azepin-5(1H,4H,6H)-yl)(2-(cyclopropylamino)-4-(trifluoromethyl)oxazol-5-yl)methanone] | 1000 to 5000
O=C(c1ocnc1C(F)(F)F)N1CCCc2[nH]cnc2[C@H]1c1nc2ccccc2s1 [Example 2131, (S)-(4-(benzo[d]thiazol-2-yl)-7,8-dihydroimidazo[4,5-c]azepin-5(1H,4H,6H)-yl)(4-(trifluoromethyl)oxazol-5-yl)methanone] | 500 to 1000

Further lines, results first:

AC50 [nM] | SMILES
< 500 | CC(C)(O)c1nc(C(F)F)c(C(=O)N2CCc3[nH]cnc3[C@H]2c2nc3ccccc3s2)s1 [Example 2105]
< 500 | CC(C)(O)c1nc(C(F)F)c(C(=O)N2CCc3[nH]cnc3[C@@H]2c2nc3ccccc3s2)s1 [Example 2106, (R)-(4-(benzo[d]thiazol-2-yl)-6,7-dihydro-1H-imidazo[4,5-c]pyridin-5(4H)-yl)(4-(difluoromethyl)-2-(2-hydroxypropan-2-yl)thiazol-5-yl)methanone]
< 500 | CC(C)(O)c1nc(Br)c(C(=O)N2CCc3[nH]cnc3[C@H]2c2nc3ccccc3s2)s1 [Example 2107]
1000 to 5000 | CC(C)(O)c1nc(Br)c(C(=O)N2CCc3[nH]cnc3[C@@H]2c2nc3ccccc3s2)s1 [Example 2108, (R)-(4-(benzo[d]thiazol-2-yl)-6,7-dihydro-1H-imidazo[4,5-c]pyridin-5(4H)-yl)(4-bromo-2-(2-hydroxypropan-2-yl)thiazol-5-yl)methanone]
1000 to 5000 | Cc1nc(C(C)(C)O)oc1C(=O)N1CCc2[nH]cnc2[C@@H]1c1nc2c(C(F)(F)F)cccc2s1 [Example 2116, (R)-(2-(2-hydroxypropan-2-yl)-4-methyloxazol-5-yl)(4-(4-(trifluoromethyl)benzo[d]thiazol-2-yl)-6,7-dihydro-1H-imidazo[4,5-c]pyridin-5(4H)-yl)methanone]
1000 to 5000 | CC(C)(O)c1nc(C(F)(F)F)c(C(=O)N2CCCc3[nH]cnc3[C@H]2c2nc3ccccc3s2)o1 [Example 2123, (S)-(4-(benzo[d]thiazol-2-yl)-7,8-dihydroimidazo[4,5-c]azepin-5(1H,4H,6H)-yl)(2-(2-hydroxypropan-2-yl)-4-(trifluoromethyl)oxazol-5-yl)methanone]
1000 to 5000 | CC(C)(O)c1nc(C(F)(F)F)c(C(=O)N2CCCc3[nH]cnc3[C@@H]2c2nc3ccccc3s2)o1 [Example 2124, (R)-(4-(benzo[d]thiazol-2-yl)-7,8-dihydroimidazo[4,5-c]azepin-5(1H,4H,6H)-yl)(2-(2-hydroxypropan-2-yl)-4-(trifluoromethyl)oxazol-5-yl)methanone]
1000 to 5000 | Cc1ncoc1C(=O)N1CCCc2[nH]cnc2[C@H]1c1nc2ccccc2s1 [Example 2129, (S)-(4-(benzo[d]thiazol-2-yl)-7,8-dihydroimidazo[4,5-c]azepin-5(1H,4H,6H)-yl)(4-methyloxazol-5-yl)methanone]
> 5000 | Cc1ncoc1C(=O)N1CCCc2[nH]cnc2[C@@H]1c1nc2ccccc2s1 [Example 2130, (R)-(4-(benzo[d]thiazol-2-yl)-7,8-dihydroimidazo[4,5-c]azepin-5(1H,4H,6H)-yl)(4-methyloxazol-5-yl)methanone]
